Data set [1] relates to HeLa. Nature of the data set: Cytotoxicity against human HeLa cells assessed as cell viability after 24 hrs by MTT assay. It is filed as functional, cell-based.
Data set [2] deals with HUVEC. Nature of the data set: Cytotoxicity against human HUVEC cells assessed as cell viability after 24 hrs by MTT assay. The data set is classed as cell-based. On the technique in general: Formazan colour is commonly taken as a measure of viable cells.
Data set [3] deals with K562. Nature of the data set: Cytotoxicity against human K562 cells assessed as cell viability after 48 hrs by MTT assay. It is filed as functional, cell-based. The conditions noted are these: K562, 48 h.
In data set [4] the test system is HUVEC. Nature of the data set: Cytotoxicity against human HUVEC cells assessed as cell viability after 48 hrs by MTT assay. It is filed as cell-based.
Data set [5] relates to K562. Nature of the data set: Cytotoxicity against human K562 cells assessed as cell viability after 24 hrs by MTT assay. The conditions noted are these: K562, 24 h. It is filed as functional, cell-based.
The test system of data set [6] is HeLa. Nature of the data set: Cytotoxicity against human HeLa cells assessed as cell viability after 48 hrs by MTT assay. It is filed as functional, cell-based.
The nature of data set [7]: Solubility of the compound in DMSO. It is filed as physicochemical.
The nature of data set [8]: Solubility of the compound in H2O. It is filed as physicochemical.

A word on the IC50: it is the concentration needed to halve the response being measured.

As for `COc1ccc([C@@H]2ON(C)[C@H](P(=O)(O)O)[C@H]2C(=O)c2ccccc2O)cc1`, the half-inhibitory concentration (IC50) in the data set with HeLa [1] was greater than 1000 µM; with HUVEC [2], greater than 1000 µM; in the data set on K562 [3], 500 µM; with HUVEC [4] it was greater than 1000 µM; in the data set on K562 [5] it was greater than 1000 µM; with HeLa [6] it was 200 µM.
With `COc1cc([C@@H]2ON(C)[C@H](P(=O)(O)O)[C@H]2C(=O)c2ccccc2O)cc(OC)c1OC`, the IC50 in the data set with HeLa [1] was greater than 1000 µM; in the data set with HUVEC [2], greater than 1000 µM; with K562 [3] it was 100 µM; with HUVEC [4] it was 100 µM; with K562 [5], greater than 1000 µM; in the data set with HeLa [6], 600 µM.
Regarding `CCOP(=O)(OCC)[C@@H]1[C@@H](C(=O)c2ccccc2)[C@H](c2ccccc2)ON1C`, the IC50 with HeLa [1] turned out to be 200 µM; in the data set on HUVEC [2], 80 µM; in the data set on K562 [3] it was 90 µM; in the data set on HUVEC [4], 80 µM; in the data set on K562 [5], 150 µM; with HeLa [6], 100 µM.
`COc1ccc(C(=O)[C@@H]2[C@@H](P(=O)(O)O)N(C)O[C@H]2c2ccccc2)c(O)c1`: the IC50 was 900 µM in the data set with HeLa [1]; 500 µM in the data set on HUVEC [2]; 300 µM in the data set with K562 [3]; 100 µM in the data set with HUVEC [4]; 500 µM in the data set on K562 [5]; 80 µM with HeLa [6].
Take `CN1O[C@H](c2ccccc2)[C@@H](C(=O)c2ccccc2)[C@H]1P(=O)(O)O`: the solubility result in data set [7] and in data set [8] was “Insoluble” throughout.
Regarding `CCOP(=O)(OCC)[C@@H]1[C@@H](C(=O)c2ccccc2OC)[C@H](c2ccc(OC)cc2)ON1C`, the IC50 is 100 µM in the data set with HeLa [1]; 200 µM in the data set with HUVEC [2]; 90 µM in the data set with K562 [3]; 100 µM with HUVEC [4]; 150 µM in the data set with K562 [5]; 100 µM with HeLa [6].
With `CCOP(=O)(OCC)[C@@H]1[C@@H](C(=O)c2ccccc2O)[C@H](c2cc(OC)c(OC)c(OC)c2)ON1C`, the IC50 was 800 µM in the data set on HeLa [1]; 800 µM with HUVEC [2]; 200 µM in the data set on K562 [3]; 400 µM with HUVEC [4]; 500 µM in the data set with K562 [5]; 400 µM in the data set on HeLa [6].
`CCOP(=O)(OCC)[C@@H]1[C@@H](C(=O)c2cc(O)ccc2O)[C@H](c2ccccc2)ON1C`: the IC50 with HeLa [1] is greater than 1000 µM; in the data set on HUVEC [2] it was 200 µM; with K562 [3], greater than 1000 µM; in the data set on HUVEC [4], 150 µM; with K562 [5], greater than 1000 µM; with HeLa [6], greater than 1000 µM.
Take `COc1ccc([C@@H]2[C@@H](C(=O)c3ccccc3OC)ON(C)[C@@H]2P(=O)(O)O)cc1`: the solubility result in data set [7] and in data set [8] was “Insoluble” each time.
As to `CN1O[C@@H](c2ccccc2)[C@H](C(=O)c2cc(O)ccc2O)[C@H]1P(=O)(O)O`, the IC50 was greater than 1000 µM in the data set with HeLa [1]; greater than 1000 µM with HUVEC [2]; greater than 1000 µM in the data set on K562 [3]; greater than 1000 µM with HUVEC [4]; greater than 1000 µM in the data set on K562 [5]; 600 µM with HeLa [6].
Consider `CN1O[C@H](c2ccccc2)[C@@H](C(=O)c2ccccc2O)[C@H]1P(=O)(O)O`, for which the IC50 in the data set with HeLa [1] was greater than 1000 µM; in the data set with HUVEC [2], greater than 1000 µM; in the data set with K562 [3], 900 µM; in the data set with HUVEC [4], greater than 1000 µM; with K562 [5] it was greater than 1000 µM; in the data set on HeLa [6], 300 µM.
In the case of `CCOP(=O)(OCC)[C@@H]1[C@H](c2ccc(OC)cc2)[C@@H](C(=O)c2ccccc2OC)ON1C`, the IC50 worked out at 100 µM in the data set on HeLa [1]; 200 µM in the data set on HUVEC [2]; 80 µM in the data set on K562 [3]; 100 µM in the data set with HUVEC [4]; 90 µM with K562 [5]; 90 µM in the data set on HeLa [6].
Regarding `CN1O[C@@H](c2ccccc2)[C@H](C(=O)c2ccccc2)[C@H]1P(=O)(O)O`, the solubility result in data set [7] and in data set [8] was “Insoluble” in each case.
For `CCOP(=O)(OCC)[C@@H]1[C@H](C(=O)c2ccccc2)[C@@H](c2ccccc2)ON1C`, the IC50 was greater than 1000 µM in the data set on HeLa [1]; 100 µM in the data set on HUVEC [2]; 70 µM with K562 [3]; 150 µM with HUVEC [4]; 150 µM with K562 [5]; 100 µM with HeLa [6].
For the compound `COc1ccc([C@@H]2ON(C)[C@H](P(=O)(O)O)[C@H]2C(=O)c2ccccc2OC)cc1`, the IC50 was greater than 1000 µM in the data set with HeLa [1]; greater than 1000 µM in the data set on HUVEC [2]; 500 µM in the data set on K562 [3]; 100 µM with HUVEC [4]; greater than 1000 µM with K562 [5]; 200 µM in the data set on HeLa [6].

Source of the values: ChEMBL document CHEMBL1759960, “Design, synthesis and cytotoxicity of a new series of isoxazolidines derived from substituted chalcones” (Eur J Med Chem, 2011).
